Assay results from paper PMC8583966, “Proteasome Inhibitors and Their Pharmacokinetics, Pharmacodynamics, and Metabolism” (International Journal of Molecular Sciences, 2021).
Like-named read-outs stand apart in the source and are kept apart here. Blank lines part the entries; values can stand above or below the molecule they belong to.

Tests used:
[1] = parameters: method as in PMID 30128949; conditions: AUC0–816h time-proportional pooled plasma, single 4.1-mg oral dose [14C]-ixazomib, four patients; cited from earlier work
[2] = parameters: method as in PMID 28428366; conditions: human hepatocytes, quantified with synthesized standards; cited from earlier work
proteasome [3] = test system: proteasome; parameters: method as in PMID 30117017; conditions: whole blood, IV administration; cited from earlier work
[4] = test system: caspase-like activity of the 20S proteasome; conditions: relative to β5 and LMP7; cited from earlier work
[5] = patients, cited from earlier work
[6] = test system: trypsin-like activity of the 20S proteasome; conditions: relative to β5 and LMP7; cited from earlier work
CYP1A2 = conditions: at higher concentrations, recombinant CYP microsomes; cited from earlier work
[7] = summary table; cited from earlier work
CYP3A4 = conditions: at higher concentrations, recombinant CYP microsomes; cited from earlier work
[8] = summary table; cited from earlier work; remark: listed apart in the source
proteasome subunits = conditions: summary table; cited from earlier work
CYP2B6 = conditions: at higher concentrations, recombinant CYP microsomes; cited from earlier work
[9] = test system: LMP7 subunit of the immunoproteasome; conditions: patients, doses ≥15 mg/m2; cited from earlier work
β1 = test system: β1; parameters: method as in PMID 20110052; conditions: whole blood, doses as high as 45 mg/m2; cited from earlier work
[10] = in vivo; cited from earlier work
[11] = in vivo; cited from earlier work; remark: listed apart in the source
[12] = human, in vivo, iv; cited from earlier work
β2 = test system: β2; parameters: method as in PMID 20110052; conditions: whole blood, doses as high as 45 mg/m2; cited from earlier work
proteasome CT-L activity = conditions: following the first dose for each week of dosing; cited from earlier work
[13] = test system: β5 subunit of the constitutive proteasome; conditions: patients, doses ≥15 mg/m2; cited from earlier work
[14] = KZR-616 and metabolites in human plasma of SLE patients; assay type: in vivo; conditions: KZR-616 75 mg
Procedure: Following repeat-dose SC administration, there was no apparent accumulation of immunoproteasome inhibition, although cumulative constitutive proteasome inhibition in whole blood was observed, likely due to the irreversible mechanism of KZR-616 inhibition and the inability of enucleated red blood cells (the major cellular source of constitutive proteasome) to produce new proteasomes. […] As in carfilzomib, and oprozomib, KZR-616 was not stable when incubated in HLMs in the absence of NADPH, indicating non-CYP enzymes were involved in its clearance. […] In pooled plasma samples from 4 patients with systemic lupus erythematous (SLE) receiving a KZR-616 dose of 75 mg, the diol was the major metabolite, and other metabolites from oxidation, hydrolysis + dehydrogenation, oxidation + dehydrogenation double oxidation were less than 1% of the total peak area of all components (Table 2).

proteasome [15] = test system: proteasome; parameters: method as in PMID 31142508; conditions: at MTD, 4 h post-dose; cited from earlier work
[16] = parameters: method as in PMID 19348473; conditions: dogs; cited from earlier work
[17] = single agent, cited from earlier work
[18] = parameters: method as in PMID 28428366; conditions: pooled HLMs, cited from earlier work
[19] = parameters: method as in PMID 19348473; conditions: mice; cited from earlier work
[20] = parameters: method as in PMID 19348473; conditions: rats; cited from earlier work
[21] = Bortezomib plasma pharmacokinetics in patients; assay type: in vivo, human; conditions: CYP IC50 vs Cmax at 1.3 mg/m2
Procedure: The relationship between plasma concentration and proteasome inhibition was assessed at 1, 6, and 24 h over a 24-hour period.

CYP450 isozyme 1A2 = conditions: human liver microsomes (~7 µg/mL); cited from earlier work
[22] = cited from earlier work
CYP450 isozyme 2C19 = conditions: human liver microsomes (~7 µg/mL); cited from earlier work
20S proteasome = conditions: cited from earlier work; for inhibition of 20S proteasome activity: patients, single agent, after 1-h treatment
CYP450 isozyme 3A4 = conditions: human liver microsomes (~7 µg/mL); cited from earlier work
CYP450 isozyme 2D6 = conditions: human liver microsomes (~7 µg/mL); cited from earlier work
CYP450 isozyme 2C9 = conditions: human liver microsomes (~7 µg/mL); cited from earlier work
[23] = healthy volunteers, SC; cited from earlier work
LMP7 = test system: LMP7; parameters: method as in PMID 30380863; conditions: mouse arthritis model, active dose; cited from earlier work
[24] = parameters: method as in PMID 34234005; conditions: absence of NADPH; cited from earlier work
[25] = PK of KZR-616 in two drug product formulations; assay type: in vivo; conditions: 10% (w/v) PS-80 vs 2% (w/v) trehalose formulation
Procedure: (§1) To further evaluate the role of epoxide hydrolase in the metabolism of KZR-616, two analogs were selected for PK and PD studies in cynomolgus monkey to compare with KZR-616. […] Following single subcutaneous (SC) administration to monkeys at 3 mg/kg of these 3 compounds AUC values were the highest with KZR-59240, followed by KZR-616 and KZR-59177. The PK of both parent and diol for each compound were consistent with the stability results in MLM in the absence of NADPH, in which the CYP enzymes were not activated (Table 3), and, as predicted, the diol derivatives were determined to be the major metabolites for all compounds. The PK and PD of KZR-616 was assessed using 2 different drug product formulations, one containing 10% (w/v) PS-80, and the other 2% (w/v) trehalose.

LMP2 = test system: LMP2; parameters: method as in PMID 30380863; conditions: mouse arthritis model, active dose; cited from earlier work
[26] = PK of KZR-616 and analogs after single SC dose in monkeys; conditions: cynomolgus monkey, in vivo, single SC dose 3 mg/kg
Procedure: as §1

SMILES: CC(C)C[C@H](O)NC(=O)[C@H](Cc1ccccc1)NC(=O)c1cnccn1 [M2]
% of plasma TRA [1]: 7.91%

SMILES: NC(=O)[C@H](Cc1ccccc1)NC(=O)c1cnccn1 [M3]
% of plasma TRA [1]: 10.6%

SMILES: COC[C@H](NC(=O)c1cnc(C)s1)C(=O)N[C@@H](COC)C(=O)N[C@@H](Cc1ccccc1)C(=O)[C@](C)(O)CO [PR-176]
percent of total oprozomib recovered as component [2]: ~ 55%

SMILES: CC(C)C[C@H](NC(=O)CNC(=O)c1cc(Cl)ccc1Cl)B(O)O [Ixazomib]
time to recovery of proteasome inhibition (proteasome [3]): ≤ 24 h
less potency than for chymotrypsin-like activities [4]: 10 fold
Tmax ([5]; oral): approximately 1 h
apparent clearance [5]: ~ 1.9 L/h
less potency than for chymotrypsin-like activities [6]: 1000 fold
contribution to metabolism (CYP1A2): 26%
Metabolic Pathwas [7]: Hydrolases, CYPs
contribution to metabolism (CYP3A4): 42%
Absorption [8]: fast
Clearance [8]: fast
Subunit Inhibition (proteasome subunits): ß5 and LMP7
contribution to metabolism (CYP2B6): 16%
% of plasma TRA [1]: 54.2%

SMILES: CC(C)C[C@H](NC(=O)[C@H](CCc1ccccc1)NC(=O)CN1CCOCC1)C(=O)N[C@@H](Cc1ccccc1)C(=O)N[C@@H](CC(C)C)C(=O)[C@@]1(C)CO1 [Carfilzomib]
average inhibition of LMP7 [9]: greater than 83%
inhibition of β1 (β1): Less than 18%
dose excreted intact [10]: less than 1%
rates of peripheral neuropathy lower than with bortezomib [11]: > 60%
t1/2 [12]: < 0.5 h
inhibition of β2 (β2): Less than 18%
Subunit Inhibition (proteasome subunits): ß5 and LMP7
time proteasome inhibition was maintained (proteasome CT-L activity): ≥ 48 h
average inhibition of β5 [13]: greater than 83%

SMILES: CC(C)C[C@@H](O)NC(=O)[C@H](Cc1ccccc1)NC(=O)c1cnccn1 [M1]
% of plasma TRA [1]: 18.9%

Component in Plasma as % of Total XIC (Extracted Ion Chromatogram) Area ([14]; Subject 110-004, SLE patient): 33.8%
Component in Plasma as % of Total XIC (Extracted Ion Chromatogram) Area ([14]; Subject 112-021, SLE patient): 45.8%
Component in Plasma as % of Total XIC (Extracted Ion Chromatogram) Area ([14]; Subject 113-002, SLE patient): 47.9%
Component in Plasma as % of Total XIC (Extracted Ion Chromatogram) Area ([14]; Subject 116-012, SLE patient): 43.8%
SMILES: COc1ccc(C(O)C(NC(=O)C(C)NC(=O)CN2CCOCC2)C(=O)NC(CC2=CCCC2)C(=O)C(C)(O)CO)cc1 (stereo not shown) [KZR-59587]

SMILES: COC[C@H](NC(=O)c1cnc(C)s1)C(=O)N[C@@H](COC)C(=O)N[C@@H](Cc1ccccc1)C(=O)[C@@]1(C)CO1 [Oprozomib]
proteasome inhibition (proteasome [15]): ≥ 70%
oral bioavailability F% [16]: 39%
maximum tolerated dose (MTD) ([17]; first 2 days every 7 days of a 14-day cycle (2/7 schedule)): 300 mg/day
maximum tolerated dose (MTD) ([17]; first 5 days of a 14-day cycle (5/14 schedule)): 240 mg/day
intrinsic clearance ([18]; absence of NADPH): 20.2 ± 1.8 µL/min/mg protein
intrinsic clearance ([18]; presence of NADPH): 70.7 ± 2.9 µL/min/mg protein
increase of intrinsic clearance by NADPH ([18]; presence vs absence of NADPH): 3.5 fold
oral bioavailability F% [19]: 17%
Metabolic Pathwas [7]: Microsomal epoxide hydrolase peptidases, CYPs
Absorption [8]: fast
Clearance [8]: fast
oral bioavailability F% [20]: 21%
percent of total oprozomib recovered as component [2]: 20%
Subunit Inhibition (proteasome subunits): ß5 and LMP7

CYP450 IC50 values higher than Cmax [21]: 60 fold
SMILES: CC(C)C[C@H](NC(=O)[C@H](Cc1ccccc1)NC(=O)c1cnccn1)B(O)O [Bortezomib]
IC50 (CYP450 isozyme 1A2): > 18 µM
variation of plasma concentration ([22]; 1 h post-dose): ~ 800%
increase in bortezomib exposure ([22]; DDI, plus ketoconazole (CYP3A4 inhibitor), patients): 1.4 fold
Metabolic Pathwas [7]: Hydrolases, CYPs
IC50 (CYP450 isozyme 2C19): > 18 µM
Absorption [8]: fast
Clearance [8]: fast
variation of proteasome inhibition (20S proteasome; 1 h post-dose): ~ 70%
recovery of proteasome activity (20S proteasome; 12 h after administration): 50%
Time to Emax (median) (20S proteasome; IV administration): 5 min
mean maximum inhibition (Emax) (20S proteasome; IV administration): approximately 69%
Time to Emax (median) (20S proteasome; SC administration): 120 min
time to complete recovery of proteasome activity (20S proteasome; after administration): ≤ 72 h
time to full recovery of proteasome activity (20S proteasome; after dosing): 36 h
time by which recovery of proteasome activity was observed (20S proteasome; assessed at 1, 6 and 24 h): ≤ 24 h
inhibition of 20S proteasome activity (20S proteasome; 0.40 mg/m2): 36%
inhibition of 20S proteasome activity (20S proteasome; 1.04 mg/m2): 60%
inhibition of 20S proteasome activity (20S proteasome; 1.20 mg/m2): 65%
inhibition of 20S proteasome activity (20S proteasome; 1.38 mg/m2): 74%
IC50 (CYP450 isozyme 3A4): > 18 µM
IC50 (CYP450 isozyme 2D6): > 18 µM
Subunit Inhibition (proteasome subunits): ß5 and LMP7
IC50 (CYP450 isozyme 2C9): > 18 µM

SMILES: COc1ccc([C@@H](O)[C@H](NC(=O)[C@H](C)NC(=O)CN2CCOCC2)C(=O)N[C@@H](CC2=CCCC2)C(=O)[C@@]2(C)CO2)cc1 [KZR-616, (2S,3R)-N-((S)-3-(Cyclopent-1-en-1-yl)-1-((R)-2-methyloxiran-2-yl)-1oxopropan-2-yl)-3-hydroxy-3-(4-methoxyphenyl)-2-((S)-2-(2morpholinoacetamido)propanamido)propenamide]
Tmax [23]: < 1 h
t1/2 [23]: < 4 h
LMP7 inhibition (LMP7): complete
stability in HLMs [24]: not stable
difference in Cmax between formulations [25]: 2 fold
total exposure (AUC) in both formulations [25]: equivalent
LMP2 inhibition (LMP2): ~ 40%
Metabolic Pathwas [7]: Microsomal epoxide hydrolase
Absorption [8]: fast
Clearance [8]: fast
Component in Plasma as % of Total XIC (Extracted Ion Chromatogram) Area ([14]; Subject 110-004, SLE patient): 61.2%
Component in Plasma as % of Total XIC (Extracted Ion Chromatogram) Area ([14]; Subject 112-021, SLE patient): 49.0%
Component in Plasma as % of Total XIC (Extracted Ion Chromatogram) Area ([14]; Subject 113-002, SLE patient): 46.5%
Component in Plasma as % of Total XIC (Extracted Ion Chromatogram) Area ([14]; Subject 116-012, SLE patient): 51.8%
AUC(0-inf) [26]: 740 ± 188 ng·h/mL
Cmax [26]: 441 ± 114 ng/mL
Tmax [26]: 0.333 ± 0.136 h
half-life [26]: 1.05 ± 0.13 h
Subunit Inhibition (proteasome subunits): LMP2 and LMP7

SMILES: C[C@@](O)(CO)C(=O)[C@@H](N)Cc1ccccc1 [diol of PR-025]
percent of total oprozomib recovered as component [2]: ~ 7%
